The record followed here is patent US20030224978A1, “Compounds and methods for modulating apoptosis” (McGill University, priority 1996, published 2003).

Positions of bridges follow the written chain, without caps; N, C: chain ends. Residues, ends and D or L forms follow the SMILES beside them.

This test relates to OVCAR-3. The test can be described thus: Disruption of human ovarian cancer cell (OVCAR-3) adhesion. The class given is cell-based. As to conditions: for OVCAR3 cell morphology: 24 hours. Here is the method:
The human ovarian cancer cell line OVCAR-3, which expresses E-cadherin, was used in these experiments. Cells were cultured in RPMI supplemented with insulin and containing 20% FCS. Cells were grown in T-250 culture flasks and maintained by periodic subculturing. Cells were harvested from flasks and seeded in individual wells of 96-well culture dishes (surface area of each well was 0.32 cm^2) at a density of 50,000 cells per well in 0.1 ml media containing the cyclic peptides (at concentrations of 1, 0.1, or 0.01 mg/ml). Media control wells were also established. Cultures were evaluated periodically by microscopic examination under both bright field and phase contrast conditions, and were maintained for 48 hours.

For the molecule `CC(=O)N[C@H]1CSSC[C@@H](C(N)=O)NC(=O)[C@H](CO)NC(=O)[C@H](C(C)C)NC(=O)[C@H](C)NC(=O)[C@H](Cc2c[nH]cn2)NC1=O` [N-Ac-CHAVSC-NH2, N-Ac-Cys-His-Ala-Val-Ser-Cys-NH2] (Ac-CHAVSC-NH2; disulfide 1-6), the OVCAR3 cell morphology result is, setting by setting: (100 μg/ml) “retract form one another”; (1 mg/ml) “round up”. The “effect on OVCAR-3 adhesion” value (1, 0.1, or 0.01 mg/ml, up to 48 hours) is “disrupted OVCAR-3 adhesion”.
